Data as given in ChEMBL document CHEMBL1201862, “PubChem BioAssay data set” (2004).
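Results reflect a 48-hour exposure of cells in 96-well plates to compound at five concentrations. At the GI50, growth is halved.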 Calls of active or inactive are those of the source. Cut-off read from the data, not from the text of the source: active = GI50 up to about 1.1 µM and inactive = higher.

Columns and labels:
Experiment in all cases: DTP human tumour cell line panel, 48 h
[1] = system: ACHN
[2] = system: HCC 2998
[3] = system: HL-60
[4] = system: HOP-92
[5] = system: KM12
[6] = system: NCI-H23
[7] = system: NCI-H460
[8] = system: RPMI-8226
[9] = system: SF-268
[10] = system: SK-MEL-28
[11] = system: SN12C
[12] = system: SNB-19
[13] = system: TK-10
[14] = system: UACC-62
[15] = system: A498

Measured: GI50

CC(=O)NNc1nc(C)c(C(/C=C/c2ccc(Cl)cc2)=N\N=C(N)N)s1
inactive: [1] > 100 µM | [2] > 100 µM | [3] > 100 µM | [4] > 100 µM | [5] > 100 µM | [6] > 100 µM | [7] > 100 µM | [8] > 100 µM | [9] > 100 µM | [10] > 100 µM | [11] > 100 µM | [12] > 100 µM | [13] > 100 µM | [14] > 100 µM

COc1cc2cc3c4c(cc(OC)c(OC)c4c2cc1OC)CCN3
inactive: [1] 32.5 µM | [2] 72.8 µM | [3] 18.2 µM | [4] 20.8 µM | [5] 31.6 µM | [6] 92 µM | [7] 21.5 µM | [8] 20 µM | [9] 34 µM | [10] 69.8 µM | [11] 46.7 µM | [12] > 100 µM | [13] 74.5 µM | [14] 5.61 µM

Cc1cc2c(=O)cc(-c3ccc(C(F)(F)F)cc3)oc2c(C(=O)O)c1C
inactive: [1] > 100 µM | [5] > 100 µM | [6] > 100 µM | [7] > 100 µM | [8] > 100 µM | [9] > 100 µM | [10] > 100 µM | [11] > 100 µM | [12] > 100 µM | [13] > 100 µM | [14] > 100 µM

CC(=O)NC1=C(C)C(=O)c2c(nc3n2CCC3OC(=O)CCl)C1=O (stereo not given)
inactive: [15] 12.6 µM | [1] 20.7 µM | [2] 12.9 µM | [3] 2.51 µM | [4] 2.33 µM | [5] 15.6 µM | [6] 11.7 µM | [7] 20.1 µM | [8] 2.65 µM | [9] 10.3 µM | [10] 17.2 µM | [11] 11.7 µM | [12] 16.6 µM | [13] 21 µM | [14] 2.81 µM

CC#CC(=O)Nc1ccccc1CC(c1c[nH]c2ccccc12)c1c[nH]c2ccccc12
inactive: [2] 18.3 µM | [3] 10.8 µM | [5] 22.3 µM | [6] 18.8 µM | [8] 8.32 µM | [9] 22.7 µM | [10] 15.7 µM | [11] 15.1 µM | [12] 18.5 µM | [13] 29.9 µM | [14] 13.3 µM

O=CC1=CCC2c3[nH]c4ccccc4c3CCN2C1 (stereo not given)
inactive: [1] 219 µM | [2] 103 µM | [3] 77.6 µM | [4] 111 µM | [5] 73.1 µM | [6] 83 µM | [7] 139 µM | [8] 112 µM | [9] 167 µM | [10] 90.6 µM | [11] 102 µM | [12] 258 µM | [13] 259 µM | [14] 93.8 µM

Clc1ccc(CCn2cncn2)c(Cl)c1
inactive: [1] > 100 µM | [2] > 100 µM | [3] > 100 µM | [4] > 100 µM | [5] > 100 µM | [6] > 100 µM | [7] > 100 µM | [9] > 100 µM | [10] > 100 µM | [11] > 100 µM | [12] > 100 µM | [13] > 100 µM | [14] > 100 µM

CCCCCCC1=NOC(C(c2cc[nH]c2)N(C)[C@H](C(=O)OC)C(C)C)C1 (stereo not given in full)
inactive: [15] > 100 µM | [1] 34.4 µM | [2] 33.9 µM | [3] 27.3 µM | [4] 51.4 µM | [5] 21.9 µM | [6] 47.8 µM | [9] > 100 µM | [10] 75 µM | [11] 20.6 µM | [12] 65.9 µM | [13] 35.4 µM | [14] 37.1 µM

CC(=O)C1CCN(c2ccccc2)C1 (stereo not given)
inactive: [15] > 100 µM | [1] > 100 µM | [3] > 100 µM | [4] > 100 µM | [5] > 100 µM | [6] > 100 µM | [7] > 100 µM | [9] > 100 µM | [10] > 100 µM | [11] > 100 µM | [12] > 100 µM | [13] > 100 µM | [14] > 100 µM

CCN(CC)CC(=O)NC1c2ccccc2Oc2c(C)cccc21 (stereo not given)
inactive: [1] 32.9 µM | [2] > 100 µM | [3] 37.7 µM | [6] > 100 µM | [7] > 100 µM | [8] 78.7 µM | [9] > 100 µM | [10] > 100 µM | [11] > 100 µM | [12] > 100 µM | [13] > 100 µM | [14] > 100 µM

O=S(=O)(/C=C/c1ccc(Cl)cc1Cl)Cc1ccccc1CS(=O)(=O)/C=C/c1ccc(Cl)cc1Cl
inactive: [15] 33.5 µM | [1] 63.8 µM | [2] > 100 µM | [4] 35.8 µM | [5] > 100 µM | [6] > 100 µM | [7] 88.7 µM | [8] 5.15 µM | [9] 40.5 µM | [10] > 100 µM | [11] > 100 µM | [12] > 100 µM | [13] > 100 µM | [14] 8.38 µM

N#CC12Cc3ccc4c(c3-c3cccc(c31)CCN2C(=O)c1ccccc1)OCO4 (stereo not given)
inactive: [15] 68.4 µM | [1] 71.8 µM | [2] > 100 µM | [3] > 100 µM | [4] 36.2 µM | [5] > 100 µM | [6] > 100 µM | [8] > 100 µM | [9] > 100 µM | [10] > 100 µM | [11] > 100 µM | [12] > 100 µM | [13] > 100 µM | [14] > 100 µM

Oc1cc(-c2ccccn2)nc2ccc(Cl)cc12
inactive: [1] 58.6 µM | [2] 58.9 µM | [3] 10.9 µM | [4] > 100 µM | [5] 24 µM | [6] 29.5 µM | [7] 38.1 µM | [8] 18.2 µM | [10] 34.8 µM | [11] 48 µM | [12] > 100 µM | [13] 95.7 µM | [14] 28.7 µM

COC(=O)C(=O)C(C(=O)C(=O)Nc1cccc(C(C)=O)c1)c1nc2ccccc2nc1O (stereo not given)
inactive: [15] > 100 µM | [1] > 100 µM | [2] > 100 µM | [3] > 100 µM | [4] > 100 µM | [5] > 100 µM | [6] > 100 µM | [7] > 100 µM | [9] > 100 µM | [10] > 100 µM | [12] > 100 µM | [13] > 100 µM | [14] > 100 µM

COC(=O)c1cccn1C(=O)n1cccc1
inactive: [15] > 100 µM | [1] > 100 µM | [2] > 100 µM | [3] > 100 µM | [4] > 100 µM | [5] > 100 µM | [6] > 100 µM | [7] > 100 µM | [9] > 100 µM | [10] > 100 µM | [11] > 100 µM | [12] > 100 µM | [13] > 100 µM | [14] > 100 µM

O=C1C2C(C(=O)N1c1ccccc1)C1(c3ccccc3)OC2(c2ccccc2)c2ccccc21 (stereo not given)
inactive: [1] > 100 µM | [2] > 100 µM | [3] > 100 µM | [4] 1.93 µM | [5] > 100 µM | [6] > 100 µM | [7] > 100 µM | [8] > 100 µM | [9] > 100 µM | [10] > 100 µM | [11] > 100 µM | [12] > 100 µM | [13] > 100 µM | [14] > 100 µM

N#CC(C(=O)CCC(=O)Nc1ccc(Cl)cc1)c1ccc(Cl)cc1 (stereo not given)
inactive: [15] > 100 µM | [1] 77.1 µM | [2] > 100 µM | [3] > 100 µM | [4] > 100 µM | [5] 91.8 µM | [6] > 100 µM | [7] > 100 µM | [8] > 100 µM | [9] 93.3 µM | [11] > 100 µM | [12] > 100 µM | [13] > 100 µM | [14] 10.7 µM

OCC(O)C(OC1OC(CO)C(O)C(O)C1O)c1nn(-c2ccc(Cl)cc2)c2nc3cc(Cl)c(Cl)cc3nc12 (stereo not given)
inactive: [15] > 100 µM | [1] > 100 µM | [2] > 100 µM | [5] > 100 µM | [6] > 100 µM | [7] > 100 µM | [8] > 100 µM | [9] > 100 µM | [10] > 100 µM | [11] > 100 µM | [12] > 100 µM | [13] > 100 µM | [14] > 100 µM

CCOC(=O)C12CCCC1(O)N(NC(=O)c1cccc(Cl)c1)C(C)=C2C(=O)OC (stereo not given)
inactive: [15] > 100 µM | [1] > 100 µM | [2] > 100 µM | [3] > 100 µM | [5] > 100 µM | [7] > 100 µM | [8] 56 µM | [9] > 100 µM | [10] > 100 µM | [11] > 100 µM | [12] > 100 µM | [14] > 100 µM

Cc1c(C(=O)CC(=O)C(=O)Nc2cc(Cl)ccc2Cl)[n+]([O-])c2ccccc2[n+]1[O-]
inactive: [15] > 100 µM | [1] > 100 µM | [2] 37.7 µM | [4] > 100 µM | [5] 37.3 µM | [6] 21.5 µM | [7] 37 µM | [8] 21.7 µM | [9] 33.4 µM | [10] 43.1 µM | [11] 36.8 µM | [12] 45.5 µM | [13] > 100 µM | [14] 19.5 µM
